The source of these data is patent USRE38423E1, “Process for in vitro analysis of toxic and allergenic substances” (Biovator Technologies AB, priority 1995, dated 2004).

The test system of data set [1] is human whole blood. Format: cell-based. Also on record: key to IL-1 / IFNγ / Neopterin / TNF / IL-6 / IL-8 / IL-2 / STL-2R / SCD8 / IL-10 / IL-4: index relative to medium control = 100. The following applies: for IFNγ / IL-1 / IL-2 / IL-4 / IL-6 / IL-8 / IL-10 / Neopterin / SCD8 / STL-2R / TNF: blood from 5 normal humans, highest value at any time or concentration, related to medium control given the value 100. As to the method:
(§1) Five healthy blood donors from both sexes ranging in age between 25 and 55 years are used. Blood is collected by venous puncture into endotoxin free heparin tubes (Coatech, Ljungby, Sweden) that contains 120 IU heparin and are filled with 4 ml of blood. None of the blood donors are allowed to have a history of allergy or atopic excema or any indication of ongoing disease of any kind.
(§2) 100 ul of blood is added to the wells of Nunclon microtiter plates.
(§3) For substances to be tested for effects in the system different concentration are added to the blood. The highest concentration of the substance being non toxic to the cells indicated by inspection in microscopic in presence of vital stain e.g. trypan blue is used as start concentration.
(§4) The microtiter plates are incubated at 37° C. at 90% humidity and with 5% CO2. An appropriate number of identical plates are prepared and are taken out of the incubator for testing at intervals of, 1 day, 2 days and 6 days.
Another set of plates is prepared with the same design as in “Culture protocol” above. Cytokines released from the cultured cells are measured in the supernatants obtained after centrifugation of the plates at 650 g for 10 minutes. The supernatants were either tested immediately or stored at −20° C. until tested.
The instructions of the manufacturers were followed. All these tests are enzyme immunoassays (EIA:s). The principle is that microtiter plate wells are labeled with a cytokine specific capture antibody. If cytokine is present in the samples added to the wells it will be captured to the bottom of the well. […] The reaction is thereafter measured as colour developed after addition of a substrate for the enzyme. The values for the test wells is compared with a standard curve obtained by adding a series of known amounts of cytokine. The values obtained for control wells with no substance added are used as background values for cytokine levels and proliferation as measured by ^3H-thymidin incorporation. Positive indications are recorded when values above 2 SD of the variation of the controls are obtained.
(§5) The highest value as compared to medium control obtained at any time or concentration for each substance is used as indicator value in the table and related to medium control put to value 100 index.

For data set [2], the system named is human whole blood. The data set is described as follows: Proliferation assay, 3H-thymidine incorporation in diluted whole blood cultures. Type of data set: cell-based. The following applies: for Prolif. Index (3H-Thymidine Proliferation): blood from 5 normal humans, highest value at any time or concentration, related to medium control given the value 100; for proliferative response (in words): summary of results, 3H-thymidine incorporation. The protocol: as §1, §2, §3, §4
One set of plates is used to estimate the proliferative activity of the donor cells spontaneously (=medium or substance dissolved controls); in response to PHA, and in response to samples of test substances at various concentrations. The highest concentration of sub-stance non toxic to the cells indicated by inspection in microscope in presence of vital stain (e.g. trypan blue) is used as start concentration. Ser. dilutions of the sub-stance is then performed as stated above.
The plates were incubated for additional 4 hours at 37° C. The cells were then collected using a Skatron cell harvester (Skatron, Lier, Norway) and Titertek paper filters. The result of his procedure is that the DNA of the cells is stuck in the filter paper, whereas the ^3H-thymidin not incorporated in the DNA passes through the filter and goes with the waste washing water. The radioactivity in the filter papers is thus proportional to the DNA synthesis that occured during the 4 hours preceding the harvesting procedure. The radiactivity of the filter papers is determined in a Packard liquid scintillation counter, and thymidine incorporation was expressed as counts per minute (cpm).
as §5

The mark [3] stands for this setting: summary of results, secreted into supernatants.

In the data set on human whole blood [1], `[Cl][Ni][Cl]` [IV, Nickel chloride] showed an IFNγ of 1220, an IL-1 of 1165, an IL-2 of 445 and an IL-4 of 80. In the data set with human whole blood [1], this molecule returned an IL-6 of 660, an IL-8 of 380, an IL-10 of 800 and a Neopterin of 90. In the data set with human whole blood [1], the SCD8 was 110, the STL-2R was 130 and the TNF is 225. In the data set with human whole blood [1] (setting [3]), the “Neopterin induction (in words)” value is “no Neopterin”; the “immune lymphocyte class / specific immune response cytokines induced (in words)” value was “IFN-gamma, IL-2 and IL-10”; the “unspecific inflammatory / tissue toxic group cytokines induced (in words)” value is “IL-1, IL-6, TNF and IL-8”. Also, in the data set with human whole blood [2], the “Prolif. Index (3H-Thymidine Proliferation)” value (shortened to “Prolif. Index”) was 1340 and the “proliferative response (in words)” value is “low proliferative response”.

With Triton X-100, in the data set on human whole blood [1], the IFNγ is 120, the IL-1 was 630, the IL-2 amounted to 85 and the IL-4 is given as 85. In addition, in the data set with human whole blood [1], the IL-6 worked out at 460, the IL-8 worked out at 200, the IL-10 was found to be 95 and the Neopterin is listed as 110. Besides, in the data set with human whole blood [1], the SCD8 stood at 95, the STL-2R is 115 and the TNF was found to be 400. In the data set with human whole blood [1] (interpretation of the cytokine profile), the “predicted adverse reaction from cytokine pattern (in words)” value was “positive tissue irritant”. For the same molecule, the “unspecific inflammatory / tissue toxic group cytokines induced (in words)” value in the data set on human whole blood [1] (setting [3]) is “IL-1, IL-6 and TNF”. Further, in the data set with human whole blood [2], the “Prolif. Index” value was determined as 200 and the “proliferative response (in words)” value is recorded as “induced proliferation”.

In the data set with human whole blood [1], phytohemagglutinin [Plus] displayed an IFNγ of 800, an IL-1 of 690, an IL-2 of 750 and an IL-4 of 820. Further, in the data set on human whole blood [1], the IL-6 turned out to be 1620, the IL-8 is 780, the IL-10 is recorded as 1250 and the Neopterin was 440. In the data set with human whole blood [1], this molecule came in with an SCD8 of 940, an STL-2R of 1820 and a TNF of 420. In the data set with human whole blood [1] (setting [3]), the “immune lymphocyte class / specific immune response cytokines induced (in words)” value is “neopterin, IFN-gamma IL-2 and IL-4 and IL-10”; the “unspecific inflammatory / tissue toxic group cytokines induced (in words)” value was “IL-1, IL-6, TNF and IL-8”. For the same molecule, in the data set with human whole blood [2], the “Prolif. Index” value turned out to be 2600 and the “proliferative response (in words)” value is listed as “strong proliferative response”.
